Measured values published in patent publication EP4356928A1, “NUCLEOSIDE DIPHOSPHATE OR DIPHOSPHONATE PRODRUGS, OR NUCLEOSIDE ANALOGUE DIPHOSPHATE OR DIPHOSPHONATE PRODRUGS” (Universität Hamburg, priority 2022, dated 2024).
Where two headings read alike, the source gives them in different places.

Columns and labels:
[1] = Chemical stability (hydrolysis half-life) in phosphate-buffered saline, RP-18 HPLC; type: physicochemical; settings: phosphate buffer saline (PBS, pH 7.3); read-out: Half-lives PBS (converted)
Experimental: (§1) Stability tests regarding a number of differently substituted β-phosphate and β-phosphonate nucleoside prodrugs were conducted. The chemical and biological stability was tested in different media (phosphate-buffered saline PBS (pH 7.3), pig liver esterase (PLE), CEM cell extracts) and rated by determining the half-live of these compounds. The products of the respective hydrolysis were detected by analytical RP-18 HPLC.
(§2) Results of the hydrolysis experiments in different media (PBS (pH = 7.3), PLE (pig liver esterase) in PBS, or CEM-T cell extracts) are shown in Table 2.
(§3) Table 2: Half-lives (in hours) of the β-phosph(on)ate prodrug compounds of the invention in phosphate buffer saline (PBS, pH 7.3), PLE (100 units/mL pig liver esterase in PBS) and CEM/0 cell extracts. n.d. = not determined.

HIV-1 (HE) = test: Inhibition of HIV-1 replication in wild-type CEM/0 cell cultures; type: cell-based; settings: Human immunodeficiency virus 1, CCRF-CEM, read-out: Antiviral activity EC50 HIV-1 (HE)
Experimental: (§4) All β-phosph(on)ate prodrug compounds were evaluated for their activity to inhibit the replication of HIV in HIV-1- and HIV-2-infected wild-type (CEM/0) cell cultures and in HIV-2-infected mutant thymidine kinase-deficient (CEM/TK^-) cell cultures (see Table 3).
(§5) Antiviral activity was determined in CD4^+ T-lymphocytes: 50% effective concentration (EC50 [µM]).

HIV-2 (ROD) [2] = test: Inhibition of HIV-2 replication in wild-type CEM/0 cell cultures; type: cell-based; settings: Human immunodeficiency virus 2, CCRF-CEM, read-out: Antiviral activity EC50 HIV-2 (ROD)
Experimental: as §4, §5

HIV-2 (ROD) [3] = test: Inhibition of HIV-2 replication in thymidine kinase-deficient CEM/TK- cell cultures; type: cell-based; settings: for EC50: Human immunodeficiency virus 2, CEM-TK(-), read-out: Antiviral activity EC50 CEM/TK^- HIV-2 (ROD)
Experimental: as §4, §5

[4] = Cytotoxicity: inhibition of CD4+ T-cell (CEM) proliferation; settings: human
Experimental: (§6) In addition, a selectivity index (SI) was determined. The selectivity index is the ratio between cell toxicity and […], the ratio between cell toxicity (see Table 4) and EC50 CEM/TK^- (see right column of Table 3).
(§7) Table 4: Cytotoxicity (CC50 [µM]) and selectivity index (SI) of tested prodrug compounds.

CD4^+ T-cell (CEM) = test: as above; settings: ratio between cell toxicity (CC50) and EC50 CEM/TK-
Experimental: as §6, §7

[5] = Stability (hydrolysis half-life) in CEM/0 cell extracts, RP-18 HPLC; type: in vitro ADME; settings: human, read-out: Half-lives CEM T cell extracts (converted)
Experimental: as §1, §2, §3

[6] = Stability (hydrolysis half-life) against pig liver esterase in PBS, RP-18 HPLC; type: in vitro ADME; settings: pH 7.3; 100 units/mL pig liver esterase in PBS; read-out: Half-lives PLE (converted)
Experimental: as §1, §2, §3

[7] = CD4+ T-lymphocytes (CEM/0), mean ±SD of n=2-3

Structure (SMILES) | half-life [1] | EC50 (HIV-1 (HE)) | EC50 (HIV-2 (ROD) [2]) | EC50 (HIV-2 (ROD) [3]) | CC50 ([4]; cem cells) | Selectivity index (SI) (CD4^+ T-cell (CEM)) | half-life [5] | half-life [6] | CC50 [4] | EC50 (HIV-1 (HE); [7]) | improvement of antiviral activity as compared to the nucleoside analogue d4T (HIV-2 (ROD) [3]; HIV-2 in CEM/TK- cells, versus d4T) | EC50 (HIV-2 (ROD) [2]; [7])
CCCCCCCCCCCCCCCCCCOP(=O)(OCCCC)OP(=O)(O)OC[C@H]1O[C@@H](n2ccc(=O)[nH]c2=O)C[C@@H]1F (some centres unmarked) [No 23] | 33.2 days | 140 ± 71 nM | 150 ± 20 nM | 210 ± 100 nM | 44800 nM | 213 |  |  |  |  |  | 
CCCCCCCCCCCCCCCCCCP(=O)(OCCCC)OP(=O)(O)OC[C@@H]1C=C[C@H](n2cnc3c(NC4CC4)nc(N)nc32)C1 (some centres unmarked) [No 26] | > 41.7 days | 34 ± 13 nM | 26 ± 18 nM | < 1 nM | > 100000 nM | >100000 | > 10 h | > 150 h |  |  |  | 
CCCCCCCCCCCCCCCCCCP(=O)(OCCCC)OP(=O)(O)OC[C@H]1O[C@@H](n2cc(C)c(=O)[nH]c2=O)C[C@@H]1N=[N+]=[N-] (some centres unmarked) [No 20] | > 83.3 days | 87 ± 55 nM | 20 ± 8 nM | 170 ± 130 nM | 82700 nM | 487 | > 18 h | > 150 h |  |  |  | 
CCCCCCCCCCCCCCCCCCP(=O)(OCCCC)OP(=O)(O)OC[C@@H]1C=C[C@H](n2cc(C)c(=O)[nH]c2=O)O1 (some centres unmarked) [No 18] | > 125 days | 31 ± 27 nM | 16 ± 8.3 nM | 2.1 ± 3.4 nM | 42600 nM | 20309 | > 40 h | > 150 h |  |  |  | 
CCCCCCCCCCCCCCCCCCP(=O)(OCCCC)OP(=O)(O)OC[C@H]1O[C@@H](n2cc(C)c(=O)[nH]c2=O)C[C@@H]1F (some centres unmarked) [No 22] | > 83.3 days | 6.3 ± 4.6 nM | 42 ± 13 nM | 15 ± 4 nM | 54300 ± 15200 nM | 3620 |  |  |  |  |  | 
CCCCCCCCCCCCCCCCCCP(=O)(OCCCC)OP(=O)(O)OC[C@H]1O[C@@H](n2ccc(=O)[nH]c2=O)C[C@@H]1F (some centres unmarked) [No 24] | > 83.3 days | 57 ± 9 nM | 76 ± 77 nM | 51 ± 69 nM | 59100 ± 20800 nM | 1159 | > 20 h | > 150 h |  |  |  | 
Cc1cn([C@H]2C=C[C@@H](CO)O2)c(=O)[nH]c1=O [d4T, stavudine, reference compound] |  | 330 ± 130 nM | 970 ± 500 nM | > 50000 nM |  | >1 |  |  | > 50000 nM |  |  | 
CCCCCCCCCCCCCCCCCCOP(=O)(OCCCC)OP(=O)(O)OC[C@@H]1C=C[C@H](n2cnc3c(NC4CC4)nc(N)nc32)C1 (some centres unmarked) [No 25] | 2.33 days | 16 ± 4 nM | 8.7 ± 0.4 nM | 3.1 ± 2.7 nM | 10500 ± 4600 nM | 3387 | 6.7 h | 41 h |  |  |  | 
Cc1cn([C@H]2C[C@H](N=[N+]=[N-])[C@@H](CO)O2)c(=O)[nH]c1=O [AZT, zidovudine, reference compound] |  |  | 3.4 ± 2.1 nM | > 100000 nM |  | >1 |  |  | > 100000 nM | 14 ± 8.5 nM |  | 
Cc1cn([C@H]2C[C@H](F)[C@@H](CO)O2)c(=O)[nH]c1=O [FLT, alovudine, reference compound] |  |  | 4.3 ± 1.7 nM | > 100000 nM |  |  |  |  | > 100000 nM | 2.5 ± 2.9 nM |  | 
CCCCCCCCCCCCCCCCCCOP(=O)(OCCCC)OP(=O)(O)OC[C@H]1O[C@@H](n2cc(C)c(=O)[nH]c2=O)C[C@@H]1N=[N+]=[N-] (some centres unmarked) [No 19] | 42.8 days | 58 ± 50 nM | 25 ± 9 nM | 43 ± 48 nM | 47800 nM | 1112 | > 8 h | > 150 h |  |  |  | 
CCCCCCCCCCCCCCCCCCOP(=O)(OCC(CC)CCCC)OP(=O)(O)OC[C@@H]1C=C[C@H](n2cc(C)c(=O)[nH]c2=O)O1 (some centres unmarked) [No 17] | > 41.7 days | 71 ± 52 nM | 45 ± 46 nM | 11 ± 0.71 nM | 46500 nM | 4226 |  |  |  |  |  | 
CCCCCCCCCCCCCCCCCCOP(=O)(OCCCC)OP(=O)(O)OC[C@@H]1C=C[C@H](n2cc(C)c(=O)[nH]c2=O)O1 (some centres unmarked) [No 16] | > 41.7 days | 33 ± 22 nM | 4.4 ± 1.3 nM | 1.1 nM | 41300 nM |  | > 18 h | > 150 h |  |  | 45.400 fold | 
CCCCCCCCCCCCCCCCCCOP(=O)(OCCCC)OP(=O)(O)OC[C@H]1O[C@@H](n2cc(C)c(=O)[nH]c2=O)C[C@@H]1F (some centres unmarked) [No 21] | > 41.7 days | 6.7 ± 2.1 nM | 40 ± 28 nM | 17 ± 16 nM | 58600 ± 19400 nM | 3447 | > 10 h | > 150 h |  |  |  | 
Nc1nc(NC2CC2)c2ncn([C@H]3C=C[C@@H](CO)C3)c2n1 [ABC, abacavir, reference compound] |  |  |  | 1980 ± 860 nM |  | >50 |  |  | > 100000 nM | 9390 ± 2450 nM |  | 3510 ± 3250 nM
